Target: BRD4 (Homo sapiens (Human), UniProt O60885)
Details: read-out: BRD4 IC50 (μM gmean)

| Structure (SMILES) | IC50 [µM] |
| --- | --- |
| COC(=O)N1c2ccc3c(nc(Cc4ccccc4C(=O)O)n3C3CCCCC3)c2CC[C@@H]1C [Example 555] | 1 to 1000 |
| COC(=O)N1c2ccc3c(nc(Cc4ccc(F)cc4)n3[C@@H]3CCC[C@@H](C(=O)O)C3)c2CC[C@@H]1C [Example 675] | 1 to 1000 |
| COC(=O)N1c2ccc3c(nc(CC(C(=O)O)c4ccccc4)n3C3CCCC(OC)C3)c2CC[C@@H]1C (stereo partly shown) [Example 791] | 1 to 1000 |
| COC(=O)N1c2ccc3c(nc(C(O)C4CCCC4)n3C3CCCC(C(=O)O)C3)c2CC[C@@H]1C (stereo partly shown) [Example 762] | 1 to 1000 |
| COC(=O)N1c2ccc3c(nc(Cc4ccccc4)n3C3CCN(c4nnn[nH]4)CC3)c2CC[C@@H]1C [Example 278] | 1 to 1000 |
| COC(=O)N1c2ccc3c(nc(CC(C(=O)O)c4ccccc4)n3-c3cccc(C#N)c3)c2CC[C@@H]1C (stereo partly shown) [Example 698] | 1 to 1000 |
| COC(=O)N1c2ccc3c(nc(CC(C(=O)O)c4ccc(C(F)F)cc4)n3C3CCCOC3)c2CC[C@@H]1C (stereo partly shown) [Example 524] | 1 to 1000 |
| COC(=O)N1c2ccc3c(nc(C(CO)c4ccccc4)n3C3CCC(C(=O)O)CC3)c2CC[C@@H]1C (stereo partly shown) [Example 582] | 1 to 1000 |
| COC(=O)N1c2ccc3c(nc(CCn4ccccc4=O)n3CCN3CCN(C)CC3)c2CC[C@@H]1C [Example 230] | 1 to 1000 |
| COC(=O)N1c2ccc3c(nc(Cc4cccc(F)c4)n3C3CCNCC3)c2CC[C@@H]1C [Example 102] | 1 to 1000 |
| COC(=O)N1c2ccc3c(nc(C(C)Cn4ccc(C)n4)n3C3CCCC(C(=O)O)C3)c2CC[C@@H]1C (stereo partly shown) [Example 782] | 1 to 1000 |
| COC(=O)N1c2ccc3c(nc(C(O)C4CCCCC4)n3C3CCCC(C(=O)O)C3)c2CC[C@@H]1C (stereo partly shown) [Example 625] | 1 to 1000 |
| COC(=O)N1c2ccc3c(nc(CC(C(=O)O)c4ccccc4)n3C3COCC(F)(F)C3)c2CC[C@@H]1C (stereo partly shown) [Example 891] | 1 to 1000 |
| COC(=O)N1c2ccc3c(nc(CC(C(=O)O)c4ccc(Cl)cc4)n3C3CCCOC3)c2CC[C@@H]1C (stereo partly shown) [Example 900] | 1 to 1000 |
| COC(=O)N1c2ccc3c(nc(C(C)Cn4cccn4)n3C3CCCS(=O)(=O)C3)c2CC[C@@H]1C (stereo partly shown) [Example 860] | 1 to 1000 |
| COC(=O)N1c2ccc3c(nc(CCn4cccn4)n3C3CCC4(CC3)CNC4)c2CC[C@@H]1C [Example 109] | 1 to 1000 |
| COC(=O)N1c2ccc3c(nc(CCn4ccccc4=O)n3CC(=O)N[C@H](C)CO)c2CC[C@@H]1C [Example 378] | 1 to 1000 |
| COC(=O)N1c2ccc3c(nc(Cc4ccccc4)n3C3CC4CNCC4C3)c2CC[C@@H]1C (stereo partly shown) [Example 98] | 1 to 1000 |
| COC(=O)N1c2ccc3c(nc(Cc4ccccc4)n3-c3ccc(C(=O)O)cc3)c2CC[C@@H]1C [Example 43] | 1 to 1000 |
| COC(=O)N1c2ccc3c(nc(CCn4ccccc4=O)n3CC(=O)N(C)CCO)c2CC[C@@H]1C [Example 379] | 1 to 1000 |
| COC(=O)N1c2ccc3c(nc(N(C)c4ccc(Cl)cc4)n3[C@H]3CC[C@H](C(=O)O)CC3)c2CC[C@@H]1C [Example 691] | 1 to 1000 |
| COC(=O)N1c2ccc3c(nc(CN4C(=O)CCc5ccccc54)n3[C@@H]3CCC[C@@H](C(=O)O)C3)c2CC[C@@H]1C [Example 789] | 1 to 1000 |
| COC(=O)N1c2ccc3c(nc(Cc4ccccc4)n3[C@@H]3CCCS(=O)(=O)C3)c2CC[C@@H]1C [Example 265, methyl (S)-2-benzyl-3-((R)-1,1-dioxidotetrahydro-2H-thiopyran-3-yl)-7-methyl-3,7,8,9-tetrahydro-6H-imidazo[4,5-f]quinoline-6-carboxylate] | 1 to 1000 |

| Structure (SMILES) | IC50 [µM] |
| --- | --- |
| COC(=O)N1c2ccc3c(nc(C(=O)Nc4ccccc4Cl)n3[C@@H]3CCC[C@@H](C(=O)O)C3)c2CC[C@@H]1C [Example 961] | 1 to 1000 |
| COC(=O)N1c2ccc3c(nc(CCn4cc(Cl)cn4)n3[C@H]3CC[C@H](C(=O)O)CC3)c2CC[C@@H]1C [Example 41] | 1 to 1000 |
| COC(=O)N1c2ccc3c(nc(Cc4ccc(OC(F)F)nc4)n3[C@@H]3CCC[C@@H](C(=O)O)C3)c2CC[C@@H]1C [Example 619] | 1 to 1000 |
| COC(=O)N1c2ccc3c(nc(CC(C(=O)O)c4ccc(C)cc4)n3C3COCC(F)(F)C3)c2CC[C@@H]1C (stereo partly shown) [Example 927] | 1 to 1000 |
| COC(=O)N1c2ccc3c(nc(CCn4cccn4)n3CCN3CCN(C4CC4)CC3)c2CC[C@@H]1C [Example 312] | 1 to 1000 |
| COC(=O)N1c2ccc3c(nc(CCn4cccn4)n3CC(=O)NCc3ccn(C)n3)c2CC[C@@H]1C [Example 345] | 1 to 1000 |
| COC(=O)N1c2ccc3c(nc(C[C@H](C(=O)O)c4ccccc4)n3CCN(C)C)c2CC[C@@H]1C [Example 138, (S)-3-((S)-3-(2-(dimethylamino)ethyl)-6-(methoxycarbonyl)-7-methyl-6,7,8,9-tetrahydro-3H-imidazo[4,5-f]quinolin-2-yl)-2-phenylpropanoic Acid] | 1 to 1000 |
| COC(=O)N1c2ccc3c(nc(CCC4CC4)n3CCN3CCOCC3)c2CC[C@@H]1C [Example 251] | 1 to 1000 |
| COC(=O)N1c2ccc3c(nc(CC(C(=O)O)c4ccc(C(F)F)cc4)n3C3COCC(F)(F)C3)c2CC[C@@H]1C (stereo partly shown) [Example 937] | 1 to 1000 |
| COC(=O)N1c2ccc3c(nc(C(C)Oc4cnccn4)n3C3CCC(C(=O)O)CC3)c2CC[C@@H]1C (stereo partly shown) [Example 833] | 1 to 1000 |
| COC(=O)N1c2ccc3c(nc(Oc4ccccc4)n3[C@H]3CC[C@H](C(=O)O)CC3)c2CC[C@@H]1C [Example 908] | 1 to 1000 |
| COC(=O)N1c2ccc3c(nc(Nc4ccc(F)cc4)n3[C@@H]3CCC[C@@H](C(=O)O)C3)c2CC[C@@H]1C [Example 876] | 1 to 1000 |
| COC(=O)N1c2ccc3c(nc(Cc4ccccc4)n3C3CC4CCC(C3)N4)c2CC[C@@H]1C (stereo partly shown) [Example 83] | 1 to 1000 |
| COC(=O)N1c2ccc3c(nc(CCn4cccn4)n3CCNCc3cnco3)c2CC[C@@H]1C [Example 292] | 1 to 1000 |
| COC(=O)N1c2ccc3c(nc([C@H](C)Cn4cc(Cl)cn4)n3[C@H]3CC[C@H](C(=O)O)CC3)c2CC[C@@H]1C [Example 907] | 1 to 1000 |
| COC(=O)N1c2ccc3c(nc(CCc4cccc(OC)c4)n3C3CC4(CNC4)C3)c2CC[C@@H]1C [Example 100] | 1 to 1000 |
| COC(=O)N1c2ccc3c(nc(CCn4cccn4)n3CC(=O)N3CC[C@@H](NC(C)=O)C3)c2CC[C@@H]1C [Example 370] | 1 to 1000 |
| COC(=O)N1c2ccc3c(nc(Cc4cccc(OC)c4)n3C3CC4(CNC4)C3)c2CC[C@@H]1C [Example 110] | 1 to 1000 |
| COC(=O)N1c2ccc3c(nc(CCn4cc(Cl)cn4)n3[C@@H]3CCC[C@@H](C(=O)O)C3)c2CC[C@@H]1C [Example 628] | 1 to 1000 |
| COC(=O)N1c2ccc3c(nc(CCn4ccccc4=O)n3CC(=O)NCC(=O)N(C)C)c2CC[C@@H]1C [Example 382] | 1 to 1000 |
| COC(=O)N1c2ccc3c(nc(C(C)CC4CCOCC4)n3C3CCCC(C(=O)O)C3)c2CC[C@@H]1C (stereo partly shown) [Example 622] | 1 to 1000 |
| COC(=O)N1c2ccc3c(nc(CCn4ccccc4=O)n3CCNCc3ccncn3)c2CC[C@@H]1C [Example 314] | 1 to 1000 |
| COC(=O)N1c2ccc3c(nc(CCc4cc(C)no4)n3[C@H]3CC[C@H](C(=O)O)CC3)c2CC[C@@H]1C [Example 37] | 1 to 1000 |

| Structure (SMILES) | IC50 [µM] |
| --- | --- |
| COC(=O)N1c2ccc3c(nc(S(=O)(=O)c4ccccc4)n3[C@@H]3CCC[C@@H](C(=O)O)C3)c2CC[C@@H]1C [Example 813] | 1 to 1000 |
| COC(=O)N1c2ccc3c(nc(C(C)(C)c4ccc(OC)c(F)c4)n3[C@H]3CC[C@H](C(=O)O)CC3)c2CC[C@@H]1C [Example 560] | 1 to 1000 |
| COC(=O)N1c2ccc3c(nc(CCn4cccn4)n3CCN3CCN(C(C)C)CC3)c2CC[C@@H]1C [Example 311] | 1 to 1000 |
| COC(=O)N1c2ccc3c(nc(CCn4cccn4)n3CCCS(C)(=O)=O)c2CC[C@@H]1C [Example 270] | 1 to 1000 |
| COC(=O)N1c2ccc3c(nc(C(O)c4ccccc4)n3C3CCC(C(=O)O)CC3)c2CC[C@@H]1C (stereo partly shown) [Example 708] | 1 to 1000 |
| COC(=O)N1c2ccc3c(nc(COC4CCCC4)n3[C@H]3CC[C@H](C(=O)O)CC3)c2CC[C@@H]1C [Example 752] | 1 to 1000 |
| COC(=O)N1c2ccc3c(nc(CCn4cccn4)n3CCN3CC4(COC4)C3)c2CC[C@@H]1C [Example 228] | 1 to 1000 |
| COC(=O)N1c2ccc3c(nc(CC(C(=O)O)c4ccccc4)n3C3COCC(F)(F)C3)c2CC[C@@H]1C (stereo partly shown) [Example 594] | 1 to 1000 |
| COC(=O)N1c2ccc3c(nc(CCn4cccn4)n3CC(=O)NCC(=O)N(C)C)c2CC[C@@H]1C [Example 354] | 1 to 1000 |
| COC(=O)N1c2ccc3c(nc(Cc4ccccc4)n3C3CCC4(CC3)CNC4)c2CC[C@@H]1C [Example 96] | 1 to 1000 |
| COC(=O)N1c2ccc3c(nc(Cc4ccccc4)n3[C@H]3CC[C@@H](c4nnn[nH]4)CC3)c2CC[C@@H]1C [Example 284] | 1 to 1000 |
| COC(=O)N1c2ccc3c(nc(Nc4ccc(OC)cc4F)n3[C@@H]3CCC[C@@H](C(=O)O)C3)c2CC[C@@H]1C [Example 846] | 1 to 1000 |
| COC(=O)N1c2ccc3c(nc(Cc4cncc(C(C)C)n4)n3[C@@H]3CCC[C@@H](C(=O)O)C3)c2CC[C@@H]1C [Example 611] | 1 to 1000 |
| CCC(O)(c1ccccc1)c1nc2c3c(ccc2n1[C@@H]1CCC[C@@H](C(=O)O)C1)N(C(=O)OC)[C@@H](C)CC3 (stereo partly shown) [Example 534] | 1 to 1000 |
| COC(=O)N1c2ccc3c(nc(Cc4ccc(N(C)C)c(F)c4)n3[C@H]3CC[C@H](C(=O)O)CC3)c2CC[C@@H]1C [Example 581] | 1 to 1000 |
| COC(=O)N1c2ccc3c(nc(CCn4cccn4)n3C)c2CC[C@@H]1C [Example 11] | 1 to 1000 |
| COC(=O)N1c2ccc3c(nc(CC(C(=O)O)c4ccc(C(F)F)cc4)n3C3COCC(F)(F)C3)c2CC[C@@H]1C (stereo partly shown) [Example 629] | 1 to 1000 |
| COC(=O)N1c2ccc3c(nc(CCn4ccccc4=O)n3CC(=O)N3CC[C@@H](NC(C)=O)C3)c2CC[C@@H]1C [Example 397] | 1 to 1000 |
| COC(=O)N1c2ccc3c(nc(CCn4ccccc4=O)n3CCN3CCOCC3)c2CC[C@@H]1C [Example 272] | 1 to 1000 |
| COC(=O)N1c2ccc3c(nc(Cc4ccccc4)n3C3CCCCC3)c2CC[C@@H]1C [Example 263] | 1 to 1000 |
| COC(=O)N1c2ccc3c(nc(CCn4cccn4)n3CC(=O)NC3CCOCC3)c2CC[C@@H]1C [Example 358] | 1 to 1000 |
